Laboratory results as given in patent US11566007B2, “Ras inhibitors” (Revolution Medicines, Inc., priority 2019, dated 2023).

Legend:
KRAS G12S = KRAS G12S (Homo sapiens (Human), UniProt P01116+P62937, G12S); test: Ras-Raf (BRAF RBD) disruption / FRET / MOA assay, KRAS G12S; type: biochemical; details: Ras-Raf disruption/FRET/MOA assay; class symbols; read-out: KRAS G12S FRET data IC50
Outline: (§1)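 Compounds, top final concentration 30 μM in 10-point 3-fold series, incubated 3 hours at 25° C with nucleotide-loaded Ras, cyclophilin A and BRAF RBD.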

NCI-H358 (K-Ras G12C) = test: CellTiter-Glo cell viability assay, NCI-H358; type: cell-based, human; details: Homo sapiens, NCI-H358, 120 h, NCI-H358, 5-day treatment; class symbols; read-out: Additional H358 Cell Viability assay data (K-Ras G12C, IC50)
Outline: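 Cells seeded, compound added directly, 5-day exposure. Plates to RT ~30 min, CellTiter-Glo luminescence read. Normalized to DMSO avg (x100); 4-parameter logistic fit.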

KRAS WT = KRAS WT (Homo sapiens (Human), UniProt P01116+P62937); test: Ras-Raf (BRAF RBD) disruption / FRET / MOA assay, KRAS WT; type: biochemical; details: read-out: IC50* KRAS WT FRET data
Outline: as §1

NRAS Q61R = NRAS Q61R (Homo sapiens (Human), UniProt P01111+P62937, Q61R); test: Ras-Raf (BRAF RBD) disruption / FRET / MOA assay, NRAS Q61R; type: biochemical; details: NRAS Q61R; Ras-Raf disruption/FRET/MOA assay; read-out: IC50* NRAS Q61R FRET data
Outline: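 TR-FRET disruption of nucleotide-loaded Ras binding to BRAF RBD via compound-driven ternary complex with cyclophilin A. Compound as 10-point 3-fold series from 30 μM final, 3 h at 25° C, then anti-His Eu-W1024 (10 nM) and anti-GST allophycocyanin (50 nM) for 1.5 h. IC50 from decreased FRET ratio versus DMSO.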

[1] = test system: NCI-H358 cells (K-Ras G12C); test: Potency assay: pERK in NCI-H358 cells; type: cell-based, human; details: Homo sapiens, NCI-H358; H358 KRAS G12C; read-out: pERK EC50
Outline: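 pERK decrease read by AlphaLISA SureFire p-ERK1/2 or In-Cell Western after 4 h compound exposure at 37 °C, 5% CO2.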

KRAS WT, sequence (P01116-2 other isoform, or with tags, fused parts or gaps): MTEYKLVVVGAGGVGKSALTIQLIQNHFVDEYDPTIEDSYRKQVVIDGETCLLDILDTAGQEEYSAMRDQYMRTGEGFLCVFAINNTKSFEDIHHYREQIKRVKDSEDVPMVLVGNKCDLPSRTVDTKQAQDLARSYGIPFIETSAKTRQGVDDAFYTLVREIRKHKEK
KRAS WT, sequence (P62937 whole entry): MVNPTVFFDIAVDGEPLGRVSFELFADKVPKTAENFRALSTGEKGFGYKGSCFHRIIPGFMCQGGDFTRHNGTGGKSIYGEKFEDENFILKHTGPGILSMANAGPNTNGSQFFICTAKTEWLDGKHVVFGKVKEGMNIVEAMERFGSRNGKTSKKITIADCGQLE
NRAS Q61R, sequence (P01111 whole entry Q61R): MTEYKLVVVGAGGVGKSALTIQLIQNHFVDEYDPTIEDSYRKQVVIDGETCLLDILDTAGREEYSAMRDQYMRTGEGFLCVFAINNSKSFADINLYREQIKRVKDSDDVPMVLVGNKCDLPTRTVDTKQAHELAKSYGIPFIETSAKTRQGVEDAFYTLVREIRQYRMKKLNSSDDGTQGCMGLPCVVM
NRAS Q61R, sequence (P62937 whole entry): as the sequence (P62937 whole entry) above
KRAS G12S, sequence (P01116-2 other isoform, or with tags, fused parts or gaps G12S): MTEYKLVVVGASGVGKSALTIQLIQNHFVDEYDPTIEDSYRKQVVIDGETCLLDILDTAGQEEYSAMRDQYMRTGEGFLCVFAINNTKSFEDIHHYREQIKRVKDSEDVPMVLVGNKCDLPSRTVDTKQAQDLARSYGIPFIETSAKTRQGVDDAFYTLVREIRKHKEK
KRAS G12S, sequence (P62937 whole entry): as the sequence (P62937 whole entry) above

SMILES | IC50 (KRAS G12S) | IC50 (NCI-H358 (K-Ras G12C)) | IC50 (KRAS WT) | IC50 (NRAS Q61R) | EC50 [1]
CCn1c(-c2cccnc2[C@H](C)OC)c2c3cc(ccc31)-c1cccc(c1)C[C@H](NC(=O)[C@@H](COC1CN(C(=O)C#C[C@@H]3OCCCN3C)C1)C(C)C)C(=O)N1CCC[C@H](N1)C(=O)OCC(C)(C)C2 (atropisomer, axis not shown) [Example A648] | > 10 µM | 0.01 to 0.1 µM | 1 to 10 µM | > 10 µM | < 5 µM
CC#CC(=O)N1CCC(C(=O)N(C)[C@H](C(=O)N[C@H]2Cc3nc(cs3)-c3ccc4c(c3)c(c(-c3cccnc3[C@H](C)OC)n4CC)CC(C)(C)COC(=O)[C@@H]3CCCN(N3)C2=O)C(C)C)C1 (atropisomer, axis not shown) [Example A168] | 1 to 10 µM | 0.01 to 0.1 µM | 1 to 10 µM | 1 to 10 µM | < 5 µM
CCn1c(-c2cccnc2[C@H](C)OC)c2c3cc(ccc31)-c1cccc(c1)C[C@H](NC(=O)[C@H](C(C)C)N(C)C(=O)N1CCC13CN(C(=O)C#CC(C)(C)N(C)C)C3)C(=O)N1CCC[C@H](N1)C(=O)OCC(C)(C)C2 [Example A672] | 0.1 to 1 µM | 0.01 to 0.1 µM | 0.1 to 1 µM | 0.1 to 1 µM | < 5 µM
C=CC(=O)N1CCC2(CCN(C(=O)N(C)[C@H](C(=O)N[C@H]3Cc4nc(cs4)-c4ccc5c(c4)c(c(-c4cccnc4[C@H](C)OC)n5CC)CC(C)(C)COC(=O)[C@@H]4CCCN(N4)C3=O)C(C)C)CC2)C1 (atropisomer, axis not shown) [Example A698] | 0.1 to 1 µM | 0.01 to 0.1 µM | 0.1 to 1 µM | 0.1 to 1 µM | < 5 µM
CCn1c(-c2cccnc2[C@H](C)OC)c2c3cc(ccc31)-c1csc(n1)C[C@H](NC(=O)[C@H](C(C)C)N(C)C(=O)N1CCC13CN(C(=O)C#CC(C)(C)N(C)C)C3)C(=O)N1CCC[C@H](N1)C(=O)OCC(C)(C)C2 (atropisomer, axis not shown) [Example A656] | 0.1 to 1 µM | 0.01 to 0.1 µM | 0.1 to 1 µM | 0.1 to 1 µM | < 5 µM
C=CC(=O)N1CC[C@H](C(=O)N(C)[C@H](C(=O)N[C@H]2Cc3cc(O)cc(c3)-c3ccc4c(c3)c(c(-c3cc(N5CC(OC)C5)ccn3)n4CC)CC(C)(C)COC(=O)[C@@H]3CCCN(N3)C2=O)C(C)C)C1 [Example A104] | 1 to 10 µM | < 0.01 µM | 1 to 10 µM | 1 to 10 µM | < 5 µM
C=CC(=O)N1CC2(C1)OCCCN2C(=O)N(C)[C@H](C(=O)N[C@H]1Cc2nc(cs2)-c2ccc3c(c2)c(c(-c2cccnc2[C@H](C)OC)n3CC)CC(C)(C)COC(=O)[C@@H]2CCCN(N2)C1=O)C(C)C (atropisomer, axis not shown) [Example A735, 2-acryloyl-N-((2S)-1-(((6^3S,4S,Z)-1^1-ethyl-1^2-(2-((S)-1-methoxyethyl)pyridin-3-yl)-10,10-dimethyl-5,7-dioxo-6^1,6^2,6^3,6^4,6^5,6^6-hexahydro-1^1H-8-oxa-2(4,2)-thiazola-1(5,3)-indola-6(1,3)-pyridazinacycloundecaphane-4-yl)amino)-3-methyl-1-oxobutan-2-yl)-N-methyl-5-oxa-2,9-diazaspiro[3.5]nonane-9-carboxamide] | > 10 µM | < 0.01 µM | 1 to 10 µM | > 10 µM | < 5 µM
CCn1c(-c2cccnc2[C@H](C)OC)c2c3cc(ccc31)-c1csc(n1)C[C@H](NC(=O)CCO[C@@H]1CCN(C(=O)C#CC(C)(C)N3CCC3)C1)C(=O)N1CCC[C@H](N1)C(=O)OCC(C)(C)C2 (atropisomer, axis not shown) [Example A366] | 1 to 10 µM | 0.1 to 1 µM | 1 to 10 µM | 1 to 10 µM | < 5 µM
C=CC(=O)N1CC[C@H](C(=O)N(C)[C@H](C(=O)N[C@H]2Cc3cc(cc(C(F)F)c3)-c3ccc4c(c3)c(c(-c3cccnc3[C@H](C)OC)n4CC(F)(F)F)CC(C)(C)COC(=O)[C@@H]3CCCN(N3)C2=O)C(C)C)C1 (atropisomer, axis not shown) [Example A372] | 1 to 10 µM | 0.01 to 0.1 µM | 1 to 10 µM | 1 to 10 µM | < 5 µM
C=CC(=O)N1CC[C@H](N(C)C(=O)N(C)[C@H](C(=O)N[C@H]2Cc3nc(cs3)-c3ccc4c(c3)c(c(-c3cccnc3[C@H](C)OC)n4CC)CC(C)(C)COC(=O)[C@@H]3CCCN(N3)C2=O)C(C)C)C1 (atropisomer, axis not shown) [Example A728] | 0.1 to 1 µM | 0.01 to 0.1 µM | 0.1 to 1 µM | 0.1 to 1 µM | < 5 µM
C=CC(=O)N1CCC2(C1)CN(C(=O)N(C)[C@H](C(=O)N[C@H]1Cc3nc(cs3)-c3ccc4c(c3)c(c(-c3cccnc3[C@H](C)OC)n4CC(F)(F)F)CC(C)(C)COC(=O)[C@@H]3CCCN(N3)C1=O)C(C)C)C2 [Example A603] | 0.1 to 1 µM | 0.01 to 0.1 µM | 0.01 to 0.1 µM | 0.01 to 0.1 µM | < 5 µM
C=CS(=O)(=O)N1CC[C@H](C(=O)N(C)[C@H](C(=O)N[C@H]2Cc3cc(O)cc(c3)-c3ccc4c(c3)c(c(-c3cncnc3)n4CC)CC(C)(C)COC(=O)[C@@H]3CCCN(N3)C2=O)C(C)C)C1 [Example A172] | 1 to 10 µM | 0.01 to 0.1 µM | 1 to 10 µM | > 10 µM | < 5 µM
C=CC(=O)N(C)[C@H]1C[C@@H](N(C)C(=O)N(C)[C@H](C(=O)N[C@H]2Cc3nc(cs3)-c3ccc4c(c3)c(c(-c3cccnc3[C@H](C)OC)n4CC)CC(C)(C)COC(=O)[C@@H]3CCCN(N3)C2=O)C(C)C)C1 (atropisomer, axis not shown) [Example A704] | 0.1 to 1 µM | < 0.01 µM | 0.01 to 0.1 µM | 0.01 to 0.1 µM | < 5 µM
C=CC(=O)N1CC[C@H](C(=O)N(C)[C@H](C(=O)N[C@H]2Cc3cc(C)cc(c3)-c3ccc4c(c3)c(c(-c3cccnc3[C@H](C)OC)n4CC)CC(C)(C)COC(=O)[C@@H]3CCCN(N3)C2=O)C(C)C)C1 (atropisomer, axis not shown) [Example A498] | 1 to 10 µM | 0.01 to 0.1 µM | 1 to 10 µM | 1 to 10 µM | < 5 µM
CCn1c(-c2cccnc2[C@H](C)OC)c2c3cc(ccc31)N1CCO[C@@H](C[C@H](NC(=O)[C@@H](COC3CN(C(=O)C#CC(C)(C)N(C)C)C3)C(C)C)C(=O)N3CCC[C@H](N3)C(=O)OCC(C)(C)C2)C1 (atropisomer, axis not shown) [Example A377, (2R)-2-(((1-(4-(dimethylamino)-4-methylpent-2-ynoyl)azetidin-3-yl)oxy)methyl)-N-((2^2S,6^3S,4S)-1^1-ethyl-1^2-(2-((S)-1-methoxyethyl)pyridin-3-yl)-10,10-dimethyl-5,7-dioxo-6^1,6^2,6^3,6^4,6^5,6^6-hexahydro-1^1H-8-oxa-2(4,2)-morpholina-1(5,3)-indola-6(1,3)-pyridazinacycloundecaphane-4-yl)-3-methylbutanamide] | > 10 µM | < 0.01 µM | > 10 µM | > 10 µM | < 5 µM
CCn1c(-c2cccnc2[C@H](C)OC)c2c3cc(ccc31)-c1csc(n1)C[C@H](NC(=O)CCOC1CN(C(=O)C#CC(C)(C)N(C)C)C1)C(=O)N1CCC[C@H](N1)C(=O)OCC(C)(C)C2 (atropisomer, axis not shown) [Example A427, 3-((1-(4-(dimethylamino)-4-methylpent-2-ynoyl)azetidin-3-yl)oxy)-N-((6^3S,4S,Z)-1^1-ethyl-1^2-(2-((S)-1-methoxyethyl)pyridin-3-yl)-10,10-dimethyl-5,7-dioxo-6^1,6^2,6^3,6^4,6^5,6^6-hexahydro-1^1H-8-oxa-2(4,2)-thiazola-1(5,3)-indola-6(1,3)-pyridazinacycloundecaphane-4-yl)propanamide] | 1 to 10 µM | < 0.01 µM | 1 to 10 µM | > 10 µM | < 5 µM
C=CC(=O)N1C[C@@H](C)[C@H](N(C)C(=O)N(C)[C@H](C(=O)N[C@H]2Cc3nc(cs3)-c3ccc4c(c3)c(c(-c3cccnc3[C@H](C)OC)n4CC)CC(C)(C)COC(=O)[C@@H]3CCCN(N3)C2=O)C(C)C)C1 (atropisomer, axis not shown) [Example A588] | 1 to 10 µM | 0.01 to 0.1 µM | 1 to 10 µM | 1 to 10 µM | < 5 µM
C=CC(=O)N(C)[C@H]1C[C@H](N(C)C(=O)N(C)[C@H](C(=O)N[C@H]2Cc3nc(cs3)-c3ccc4c(c3)c(c(-c3cccnc3[C@H](C)OC)n4CC)CC(C)(C)COC(=O)[C@@H]3CCCN(N3)C2=O)C(C)C)C1 (atropisomer, axis not shown) [Example A712] | 0.01 to 0.1 µM | < 0.01 µM | 0.01 to 0.1 µM | 0.01 to 0.1 µM | < 5 µM
